In one test the target is T1, KRAS G12D/RAF1 (Homo sapiens, UniProt P01116, G12D).
T1 construct: His6-MBP (N, cleaved yes); made in house; host or cells: E. coli
The experiment in a line: Protein-protein interaction (PPI) HTRF assay KRAS G12D/RAF1. Type of test: binding. As to conditions: Table 4. An outline of the steps: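 HTRF pairing of His-tagged RAF1 (52-131) plus Tb-cryptate donor with GppNHp-exchanged biotin-RAS (KRAS 1-169 wt/G12D/G12V, NRAS wt) plus streptavidin-d2 acceptor; compound sits 30 min with RAS first, then 1 h RT with RAF1. IC50 derived from 665/615 ratio, untagged RAF1 defining full inhibition.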

The test system of test [1] is AGS cells (KRAS G12D), phospho-ERK. The experiment in a line: pERK In Cell Western (ICW) assay (Method B), AGS cells. Format: cell-based. As to conditions: Homo sapiens, Table 4, pERK, 3 hours, read-out: ICW-AGS. The method, then:
pERK ICW is a high throughput screening assay to evaluate the cellular potency of mutant KRAS small molecule inhibitors. KRAS mutant cell lines AGS and GP2D (KRAS^G12D) were purchased from ATCC and maintained respectively in RPMI and DMEM medium supplemented with 10% fetal bovine serum and Penicillin/Streptomycin.
Cells grown in exponential phase were trypsinized, resuspended in fresh media, and viable cells were counted using a cell counter with Trypan Blue (BioRad TC20). Cells were seeded into 384-well plate (Greiner 781091) at density of 5,000 cells/well for AGS and 10,000 cells/well for GP2D and allowed to grow overnight in a 37° C. CO2 incubator. The next day, compounds were dispensed into wells with a ½ log, 10-point serial dilution and top concentration of […] using Tecan D300e dispenser and incubated for 3 hours in a 37° C. CO2 incubator. Cells were then fixed with paraformaldehyde (Electron Microscopy Sciences, 15710, 4% final concentration) for 30 min, permeabilized with wash buffer (1×PBS+0.1% Triton X-100) for 30 min and blocked with Odyssey blocking buffer (Li—COR 927-70001) for 1 hour, all at room temperature (RT). Phospho-ERK antibody (CST 4370L) was diluted 1:500 in Odyssey blocking+0.2% Tween 20 and incubated with cells overnight at 4° C. The next day, plates were washed 5× with wash buffer, incubated with IRDye 800 CW, Goat anti-Rabbit secondary antibody (Li—COR 926-32211, 1:500) and DRAQ5 (CST 4084L, 1:5,000) diluted in Odyssey blocking+0.2% Tween 20 for 1 hour, washed 5×, and imaged on an Odyssey CLx imaging system.
For data analysis, signal intensities from 800 (phosphor-ERK) and 700 (DRAQ5) channels were extracted, and phospho-ERK signals were normalized to DRAQ5 signals for each well and percent of DMSO control values were computed. Data were then imported into Graphpad Prism to compute half-maximal inhibitory concentrations (IC50) using a 4-parameter variable slope model. Z-factor for each plate was computed from signals derived from wells treated with either DMSO or […] of Trametinib. AGS pERK ICW (Method B) IC50 (uM) values of selected compounds are depicted in Table 2 with compounds having a value 0.001 uM to 0.01 uM as ++++; >0.01 uM to 0.1 uM as +++; >0.1 uM to 1 uM as ++; 1 uM to 10 uM as + and >10 uM as NA.

Our source for the IC50 values is patent US12145947B2, “Pyrimidine based modulators and uses thereof” (Quanta Therapeutics, Inc., priority 2022, dated 2024).

T1 sequence (P01116 with tags, fused parts or gaps isoform P01116-2 G12D): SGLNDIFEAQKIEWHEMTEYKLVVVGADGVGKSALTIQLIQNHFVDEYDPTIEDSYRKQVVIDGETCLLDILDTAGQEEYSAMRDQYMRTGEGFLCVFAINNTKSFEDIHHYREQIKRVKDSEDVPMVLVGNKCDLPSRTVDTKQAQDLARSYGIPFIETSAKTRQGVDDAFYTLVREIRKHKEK

With `Cc1noc(-c2cc3n(n2)CCCN(c2nc(OC[C@@]45CCCN4C[C@H](F)C5)nc(N4CC5(CCc6sc(N)c(C#N)c65)C4)c2C#N)C3)n1` [Compound 16, 2-amino-1′-[5-cyano-6-[2-(3-methyl-1,2,4-oxadiazol-5-yl)-4,6,7,8-tetrahydropyrazolo[1,5-a][1,4]diazepin-5-yl]-2-[[(2R,8S)-2-fluoro-1,2,3,5,6,7-hexahydropyrrolizin-8-yl]methoxy]pyrimidin-4-yl]spiro[5,6-dihydrocyclopenta[b]thiophene-4,3′-azetidine]-3-carbonitrile], the IC50 is 10000 to 100000 nM on KRAS G12D/RAF1 and 100 to 1000 nM in test [1].

Regarding `Cc1noc(-c2nn3c(c2Cl)CN(c2nc(OC[C@@]45CCCN4C[C@H](F)C5)nc(N4CC5(CCc6sc(N)c(C#N)c65)C4)c2C#N)CCC3)n1` [Compound 17, 2-amino-1′-[6-[3-chloro-2-(3-methyl-1,2,4-oxadiazol-5-yl)-4,6,7,8-tetrahydropyrazolo[1,5-a][1,4]diazepin-5-yl]-5-cyano-2-[[(2R,8S)-2-fluoro-1,2,3,5,6,7-hexahydropyrrolizin-8-yl]methoxy]pyrimidin-4-yl]spiro[5,6-dihydrocyclopenta[b]thiophene-4,3′-azetidine]-3-carbonitrile], the IC50 was 1000 to 10000 nM on KRAS G12D/RAF1 and 100 to 1000 nM in test [1].

For `CN(C)C(=O)c1nn2c(c1Cl)CN(c1nc(OCC34CCCN3CCC4)nc(N3CC4(CCc5sc(N)c(C#N)c54)C3)c1C#N)CCC2` [Compound 18, 5-[6-(2-amino-3-cyano-spiro[5,6-dihydrocyclopenta[b]thiophene-4,3′-azetidine]-1′-yl)-5-cyano-2-(1,2,3,5,6,7-hexahydropyrrolizin-8-ylmethoxy)pyrimidin-4-yl]-3-chloro-N,N-dimethyl-4,6,7,8-tetrahydropyrazolo[1,5-a][1,4]diazepine-2-carboxamide], the IC50 (on KRAS G12D/RAF1; in test [1]) was 100 to 1000 nM in each case.

Turning to `N#Cc1c(N2CCCCCC2)nc(OC[C@@]23CCCN2C[C@H](F)C3)nc1N1CC2(CCc3sc(N)c(C#N)c32)C1` [Compound 19, 2-amino-1′-[6-(azepan-1-yl)-5-cyano-2-[[(2R)-2-fluoro-1,2,3,5,6,7-hexahydropyrrolizin-8-yl]methoxy]pyrimidin-4-yl]spiro[5,6-dihydrocyclopenta[b]thiophene-4,3′-azetidine]-3-carbonitrile], the IC50 (at KRAS G12D/RAF1; in test [1]) was 1000 to 10000 nM throughout.

With `CS(=O)(=O)c1cc2n(n1)CCCN(c1nc(OC[C@@]34CCCN3C[C@H](F)C4)nc(N3CC4(CCc5sc(N)c(C#N)c54)C3)c1C#N)C2` [Compound 21, 2-amino-1′-[5-cyano-2-[[(2R,8S)-2-fluoro-1,2,3,5,6,7-hexahydropyrrolizin-8-yl]methoxy]-6-(2-methylsulfonyl-4,6,7,8-tetrahydropyrazolo[1,5-a][1,4]diazepin-5-yl)pyrimidin-4-yl]spiro[5,6-dihydrocyclopenta[b]thiophene-4,3′-azetidine]-3-carbonitrile], the IC50 on KRAS G12D/RAF1 fell in the range of 1000 to 10000 nM; in test [1], 100 to 1000 nM.

Take `N#Cc1c(N)sc2c1C1(CC2)CN(c2nc(OCC3(CN4CCOCC4)CC3)nc(N3C[C@H]4CC[C@@H](C3)N4)c2F)C1` [Compound 22, 2-amino-1′-[6-(3,8-diazabicyclo[3.2.1]octan-3-yl)-5-fluoro-2-[[1-(morpholinomethyl)cyclopropyl]methoxy]pyrimidin-4-yl]spiro[5,6-dihydrocyclopenta[b]thiophene-4,3′-azetidine]-3-carbonitrile]: the values for the IC50 (against KRAS G12D/RAF1; in test [1]) were 100 to 1000 nM and 10 to 100 nM, respectively.

On to `N#Cc1c(N2C[C@H]3CC[C@@H](C2)N3)nc(OCC2(CN3CCOCC3)CC2)nc1N1CC2(CCc3sc(N)nc32)C1` [Compound 23, 4-(2-aminospiro[5,6-dihydrocyclopenta[d]thiazole-4,3′-azetidine]-1′-yl)-2-[[1-(morpholinomethyl)cyclopropyl]methoxy]-6-[(1R,5S)-3,8-diazabicyclo[3.2.1]octan-3-yl]pyrimidine-5-carbonitrile], for which the IC50 at KRAS G12D/RAF1 was 1000 to 10000 nM; in test [1], 100 to 1000 nM.

`N#Cc1cc2n(n1)CCCN(c1nc(OC[C@@]34CCCN3C[C@H](F)C4)nc(N3CC4(CCc5sc(N)c(C#N)c54)C3)c1C#N)C2` [Compound 24, 2-amino-1′-[5-cyano-6-(2-cyano-4,6,7,8-tetrahydropyrazolo[1,5-a][1,4]diazepin-5-yl)-2-[[(2R,8S)-2-fluoro-1,2,3,5,6,7-hexahydropyrrolizin-8-yl]methoxy]pyrimidin-4-yl]spiro[5,6-dihydrocyclopenta[b]thiophene-4,3′-azetidine]-3-carbonitrile]: the values for the IC50 (against KRAS G12D/RAF1; in test [1]) were 10000 to 100000 nM and 100 to 1000 nM, respectively.

`N#Cc1c(N2C[C@H]3CC[C@@H](C2)N3)nc(OC[C@@]23CCCN2C[C@H](F)C3)nc1N1CC2(CCc3sc(N)c(C#N)c32)C1` [Compound 25, 2-amino-1′-[5-cyano-6-(3,8-diazabicyclo[3.2.1]octan-3-yl)-2-[[(2R,8S)-2-fluoro-1,2,3,5,6,7-hexahydropyrrolizin-8-yl]methoxy]pyrimidin-4-yl]spiro[5,6-dihydrocyclopenta[b]thiophene-4,3′-azetidine]-3-carbonitrile]: the IC50 on KRAS G12D/RAF1 fell in the range of 100 to 1000 nM; in test [1], 10 to 100 nM.

`CN(C)CC(F)(F)COc1nc(N2C[C@H]3CC[C@@H](C2)N3)c(C#N)c(N2CC3(CCc4sc(N)c(C#N)c43)C2)n1` [Compound 26, 2-amino-1′-[5-cyano-6-(3,8-diazabicyclo[3.2.1]octan-3-yl)-2-[3-(dimethylamino)-2,2-difluoro-propoxy]pyrimidin-4-yl]spiro[5,6-dihydrocyclopenta[b]thiophene-4,3′-azetidine]-3-carbonitrile]: the IC50 on KRAS G12D/RAF1 fell in the range of 10000 to 100000 nM; in test [1], 1000 to 10000 nM.

For `Cn1c(-c2cc3n(n2)CCCN(c2nc(OC[C@@]45CCCN4C[C@H](F)C5)nc(N4CC5(CCc6sc(N)c(C#N)c65)C4)c2C#N)C3)nc2ccccc21` [Compound 29, 2-amino-1′-[5-cyano-6-[2-(1-methylbenzimidazol-2-yl)-4,6,7,8-tetrahydropyrazolo[1,5-a][1,4]diazepin-5-yl]-2-[[(2R,8S)-2-fluoro-1,2,3,5,6,7-hexahydropyrrolizin-8-yl]methoxy]pyrimidin-4-yl]spiro[5,6-dihydrocyclopenta[b]thiophene-4,3′-azetidine]-3-carbonitrile], the IC50 against KRAS G12D/RAF1 fell in the range of 10000 to 100000 nM; in test [1], 1000 to 10000 nM.

`Cn1c(-c2nn3c(c2Cl)CN(c2nc(OC[C@@]45CCCN4C[C@H](F)C5)nc(N4CC5(CCc6sc(N)c(C#N)c65)C4)c2C#N)CCC3)nc2ccccc21` [Compound 30]: the IC50 against KRAS G12D/RAF1 was in the range of 10000 to 100000 nM; in test [1] it was 100 to 1000 nM.

On to `Cn1c(-c2nn3c(c2Cl)CN(c2nc(OC[C@@]45CCCN4C[C@H](F)C5)nc(N4CC5(CCc6sc(N)c(C#N)c65)C4)c2C#N)CCC3)nc2c(F)cccc21` [Compound 32, 2-amino-1′-[6-[3-chloro-2-(4-fluoro-1-methyl-benzimidazol-2-yl)-4,6,7,8-tetrahydropyrazolo[1,5-a][1,4]diazepin-5-yl]-5-cyano-2-[[(2R,8S)-2-fluoro-1,2,3,5,6,7-hexahydropyrrolizin-8-yl]methoxy]pyrimidin-4-yl]spiro[5,6-dihydrocyclopenta[b]thiophene-4,3′-azetidine]-3-carbonitrile], for which the IC50 lay within 10000 to 100000 nM at KRAS G12D/RAF1 and 100 to 1000 nM in test [1].

As to `N#Cc1c(N2CCCC(C#N)CC2)nc(OC[C@@]23CCCN2C[C@H](F)C3)nc1N1CC2(CCc3sc(N)c(C#N)c32)C1` (stereo partly drawn) [Compound 33, 2-amino-1′-[5-cyano-6-(4-cyanoazepan-1-yl)-2-[[(2R,8S)-2-fluoro-1,2,3,5,6,7-hexahydropyrrolizin-8-yl]methoxy]pyrimidin-4-yl]spiro[5,6-dihydrocyclopenta[b]thiophene-4,3′-azetidine]-3-carbonitrile], the IC50 (at KRAS G12D/RAF1; in test [1]) was 1000 to 10000 nM each time.
